The assay relates to decay organisms. Kind of assay: soil contact veneer exposure test (Scots pine sapwood veneers part buried in damp compost, pulled by hand until failure). The following applies: for Half lives for chemicals tested as solutions in acetone, With RH-287 added / Half lives for chemicals tested as solutions in acetone, No addition (average time for failure to occur) / Half lives, With RH-287 added, expected value in parentheses / positive synergy: actual average time to failure compared with the estimated one: Example 1; for Half lives for chemicals tested as solutions in acetone, With RH-287 added: 1.00% fungicide plus 1.00% RH-287 in acetone; for Half lives for chemicals tested as solutions in acetone, No addition (average time for failure to occur): 2.00% fungicide alone in acetone, dip treated veneers, 6 replicates, compost about 30° C.; for Half lives, With RH-287 added, expected value in parentheses: expected additive value for 1.00% fungicide plus 1.00% RH-287, midway between the two 2.00% values; for positive synergy: actual average time to failure compared with the estimated one: combination of RH-287 with co-biocide, 1.00% each in acetone. The source says: It is preferable that the thickness of the veneers be greater than 0.1 mm, as veneers of lesser thickness can often be pulled apart by hand without undergoing exposure to decay organisms. Veneers which are thicker than 0.4 may take an excessive amount of time to fail the exposure test. In one embodiment, the thickness of the veneers is about 0.2 mm and the wood is the sapwood of the Scots pine (Pinus sylvestris). Other woods and thicknesses can be used. […] For example, 0.2 mm thick Scots pine sapwood veneers which are exposed as outlined below generally fail in 5 weeks or less. An example of convenient width and length dimensions are 15×50 mm. However, width and length are not critical, although very large or small length or width dimensions may be difficult to handle.
Accordingly, the test of the present invention comprises testing the integrity of a veneer after exposure to a decay-inducing environment. In one embodiment, this environment is damp compost in which decay organisms are present and water is present at just above the water holding capacity of the compost. If desired, other media can be used, and the test can be conducted at water contents which are below, at, or above the water-holding capacity of the media.
In general, the integrity of the veneer is inversely related to the length of exposure to the decay promoting environment. The integrity of the veneer can be tested by applying a force to the veneer and noting whether or not the veneer breaks. Thus, if wood preservative agents are applied to the veneers, these veneers would be expected to withstand longer exposure to the environment without breaking compared to control veneers without breaking.
The force applied to the veneers is preferably a force which pulls the two ends in opposite directions. The force can be applied by the use of an instrument or manually. If there is significant decay the veneer will break, generally near the junction between the portion submerged in the decay accelerating medium and the portion exposed to air. If the force is applied manually, it is preferable that the same individual conduct the test at the various exposure time points.
Veneers of Scots pine Pinus sylvestris (0.2 mm thick, 50×15 mm) sapwood are cut from test blocks as described in EN 113, a known standard test method in the European timber industry. The veneers were cut such that both late wood and early wood were present in each veneer. RH-287 was tested in combination with the following biocides: chlorothalonil, fenpropimorph, propiconazole, copper ( as copper naphthenate ), tridemorph, fenarimol, cyproconazole, Imazalil and dichlorophen.
Test solutions were prepared and sets of veneers were dip treated such that there were 6 replicate veneers for each treatment under investigation. Additionally six veneers were dip treated in deionised water to act as water controls. Being thin, the timber veneers dried quickly. Plastic containers (approximately 350×220 mm by at least 60 mm high) were part filled with John Innes Number 2 potting compost at a little above its water holding capacity. The veneers for a particular test were placed in six rows within a container such that approximately half the veneer was below the compost and half above. The veneers were placed in the compost such than those given a particular treatment were distributed throughout the container and were not grouped together. The containers, compost and veneers were weighed then incubated at about 30° C. and near 100% relative humidity in an incubator. Each week during the test the assembly was reweighed and deionised water added to bring it back to its original mass. After 3 weeks each veneer was examined in turn. It was held between the fingers at each end and pulled to see if it could be broken. If it could be pulled apart a failure was recorded. If the veneer was sound, this was recorded and the veneer was returned to its original position. […]

The mark [1] stands for this setting: Example 3, solutions in acetone.
[2] abbreviates: Example 4, solutions in acetone.

Values joined by “and” are separate entries in the source; they are usually repeats but may differ in a detail not shown here. Equal entries are not always repeated.

Turning to `OC(c1ccc(Cl)cc1)(c1cncnc1)c1ccccc1Cl` (racemic) [Fenarimol, (±)-2,4′-dichloro-α-(pyrimidin-5-yl) benzhydryl alcohol], the “Half lives for chemicals tested as solutions in acetone, With RH-287 added” value (shortened to “Half lives … in acetone, With RH-287 added”) turned out to be 17.17 weeks; the “Half lives for chemicals tested as solutions in acetone, No addition (average time for failure to occur)” value stood at 5.50 weeks; the “Half lives, With RH-287 added, expected value in parentheses” value (shortened to “Half lives, With RH-287 added”) is on record as “(15.34 weeks)”.

Turning to `CC(Cc1ccc(C(C)(C)C)cc1)CN1C[C@@H](C)O[C@@H](C)C1` (mixture of isomers) [Fenpropimorph, (±)-cis-4-[3-(4-tert-butylphenyl)-2-nethylpropyl]-2,6-dimethyl=morpholine], the “Half lives … in acetone, With RH-287 added” value stood at 21.17 weeks; the “Half lives for chemicals tested as solutions in acetone, No addition (average time for failure to occur)” value is 4.50 weeks; the “positive synergy: actual average time to failure compared with the estimated one” value is “most marked”; the “Half lives, With RH-287 added” value is given as “(14.84 weeks)”.

For `CCCC1COC(Cn2cncn2)(c2ccc(Cl)cc2Cl)O1` (racemic) [Propiconazole, (±)-1-[2-(2,4-dichlorophenyl)-4-propyl-1,3-dioxolan-2-ylmethyl-=1H-1,2,4-triazol], the “Half lives … in acetone, With RH-287 added” value amounted to 20.50 weeks; the “Half lives for chemicals tested as solutions in acetone, No addition (average time for failure to occur)” value is given as 4.50 weeks; the “Half lives, With RH-287 added” value is “(14.84 weeks)”.

As for `N#Cc1c(Cl)c(Cl)c(Cl)c(C#N)c1Cl` [Chlorothalonil, tetrachloroisophthalonitrile], the “Half lives … in acetone, With RH-287 added” value turned out to be 22.50 weeks; the “Half lives for chemicals tested as solutions in acetone, No addition (average time for failure to occur)” value is 12.5 weeks and 12.50 weeks. For the same compound, under “listed as chlorothalonil”, the “Half lives for chemicals tested as solutions in acetone, No addition (average time for failure to occur)” value amounted to 12.5 weeks and the “Half lives, With RH-287 added” value is reported as “about 18.84 weeks”.

Turning to `CC(C1CC1)C(O)(Cn1cncn1)c1ccc(Cl)cc1` (stereo not drawn) [Cyproconazole, (2RS,3RS;2RS,3SR)-2-(4-chlorophenyl)-3-cyclopropyl-1-=(1H-1,2,4-trazol-1-yl)butan-2-ol], the “Half lives … in acetone, With RH-287 added” value came to 22.00 weeks; the “Half lives for chemicals tested as solutions in acetone, No addition (average time for failure to occur)” value amounted to 5.17 weeks; the “positive synergy: actual average time to failure compared with the estimated one” value was “most marked”; the “Half lives, With RH-287 added” value is reported as “(15.17 weeks)”.

For the compound `Oc1ccc(Cl)cc1Cc1cc(Cl)ccc1O` [Dichlorophen, 4.4′-dichloro-2,2′-methylenediphenol], the “Half lives … in acetone, With RH-287 added” value came out at 24.17 weeks; the “Half lives for chemicals tested as solutions in acetone, No addition (average time for failure to occur)” value is 16.00 weeks; the “Half lives, With RH-287 added” value is listed as “(20.59 weeks)”. Also, the “Half life for 0.8% fungicide plus 0.8% RH-287, expected value in parentheses” value (Example 3, expected additive value) was “{13.83 weeks}”. In addition, under setting [1], the “Half life for 0.8% fungicide plus 0.8% RH-287” value was 15.33 weeks, the “Half life for fungicide at 0.8% active ingredient” value amounted to 8.67 weeks and the “Half life for fungicide at 1.60% active ingredient (ai)” value came to 10.83 weeks.

For `CCCCCCCCn1sc(Cl)c(Cl)c1=O` [RH-287, 4,5 dichloro-2-n-octyl-4-isothiazolin-3-one], the “Half lives for chemicals tested as solutions in acetone, No addition (average time for failure to occur)” value was found to be 25.17 weeks. For the same compound, the “Half life for fungicide at 2.00% active ingredient (ai)” value (Example 2, solutions in acetone) was determined as 22.50 weeks. Besides, under setting [1], the “Half life for fungicide at 0.8% active ingredient” value is 10.00 weeks and the “Half life for fungicide at 1.60% active ingredient (ai)” value was found to be 16.83 weeks. Also, under setting [2], the “Half life for fungicide at 0.8% active ingredient” value is on record as 12.17 weeks and the “Half life for fungicide at 1.60% active ingredient (ai)” value came to 16.67 weeks. Further, the “relationship between concentration of RH-287 and veneer half life” value (Example 5, up to about 2% RH-287 in acetone (FIG. 1)) is on record as “corresponding increase in the half life”.

`CCCCCCCCCCCCCN1CC(C)OC(C)C1` (stereo not shown) [Tridemorph, 4-alkyl-2,6-dimethylmorpholine]: the “Half lives … in acetone, With RH-287 added” value is 17.50 weeks; the “Half lives for chemicals tested as solutions in acetone, No addition (average time for failure to occur)” value is reported as 4.33 weeks; the “Half lives, With RH-287 added” value is on record as “(14.75 weeks)”.

In the case of “Copper naphthenate [Copper (as Copper Naphthenate)]”, the “Half lives … in acetone, With RH-287 added” value is 21.50 weeks and the “Half lives for chemicals tested as solutions in acetone, No addition (average time for failure to occur)” value is 16.67 weeks.

The values above are taken from US20090004497A1, “Wood Preservative Formulations Comprising Rh-287” (priority 2006, published 2009).
